The results in this text go back to US20210070748A1, “INHIBITORS OF BRUTONS TYROSINE KINASE” (Pharmacyclics LLC, priority 2015, published 2021).

Where two headings read alike, the source gives them in different places. A value given as a limit tells only on which side of the number the result lay.

Broadly, the IC50 is the concentration needed to halve the response being measured.

What all share (format): biochemical
In one experiment the target is T1, BTK-WT (Homo sapiens, UniProt Q06187).
T1 construct: purified from insect cells as a full-length construct containing an N-terminal 6X-His tag; His6 (N); made in house; host or cells: insect cells (baculovirus Sf21 in Method B)
Kind of experiment: Btk in vitro inhibitory activity (one of Method A TR-FRET, Method B electrophoretic mobility shift, Method C radiometric filter binding). The conditions noted are these: read-out: BTK-WT (IC50). A general note: Mobility shift assays separate free from complexed probe on a gel.

The target in another experiment is T2, JAK3 (Homo sapiens, UniProt P52333).
T2 sequence (P52333 1-1124): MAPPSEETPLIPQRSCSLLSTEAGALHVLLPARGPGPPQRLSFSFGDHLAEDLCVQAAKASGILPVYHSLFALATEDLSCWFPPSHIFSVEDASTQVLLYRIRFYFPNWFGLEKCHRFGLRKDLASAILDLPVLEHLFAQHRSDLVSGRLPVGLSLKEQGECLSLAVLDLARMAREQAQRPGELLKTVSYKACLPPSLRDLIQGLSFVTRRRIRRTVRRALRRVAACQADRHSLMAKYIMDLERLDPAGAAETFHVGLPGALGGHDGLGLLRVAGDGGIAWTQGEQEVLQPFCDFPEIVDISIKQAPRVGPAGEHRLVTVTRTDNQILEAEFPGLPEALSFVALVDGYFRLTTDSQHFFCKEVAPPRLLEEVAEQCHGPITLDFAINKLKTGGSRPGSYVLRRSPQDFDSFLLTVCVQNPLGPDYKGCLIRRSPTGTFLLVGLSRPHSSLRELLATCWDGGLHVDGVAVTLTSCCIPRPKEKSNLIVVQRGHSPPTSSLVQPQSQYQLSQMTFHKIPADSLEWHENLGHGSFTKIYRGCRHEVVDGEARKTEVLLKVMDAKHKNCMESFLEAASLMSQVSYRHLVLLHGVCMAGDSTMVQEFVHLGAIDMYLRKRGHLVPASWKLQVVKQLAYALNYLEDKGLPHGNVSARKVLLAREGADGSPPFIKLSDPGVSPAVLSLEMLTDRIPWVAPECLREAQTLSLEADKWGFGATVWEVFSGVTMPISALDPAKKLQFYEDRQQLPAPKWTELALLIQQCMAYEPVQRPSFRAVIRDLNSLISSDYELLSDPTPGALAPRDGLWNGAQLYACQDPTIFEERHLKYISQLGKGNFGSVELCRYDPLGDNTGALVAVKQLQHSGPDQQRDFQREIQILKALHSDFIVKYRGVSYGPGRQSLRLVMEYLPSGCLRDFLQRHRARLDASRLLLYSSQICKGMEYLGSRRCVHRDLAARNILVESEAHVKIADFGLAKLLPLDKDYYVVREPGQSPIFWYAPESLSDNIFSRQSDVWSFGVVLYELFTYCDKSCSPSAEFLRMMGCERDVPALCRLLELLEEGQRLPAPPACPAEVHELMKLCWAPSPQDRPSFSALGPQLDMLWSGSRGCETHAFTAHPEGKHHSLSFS
In words: Inhibition of a panel of kinases, in vitro HotSpot kinase assay: JAK3. Particulars: 1 μM ATP, read-out: JAK3 (IC50).

In the next experiment the target is LCK (Homo sapiens, UniProt P06239). Kind of experiment: Inhibition of a panel of kinases, in vitro HotSpot kinase assay: LCK. The conditions noted are these: 1 μM ATP, read-out: LCK (IC50).
LCK, sequence (P06239 whole entry): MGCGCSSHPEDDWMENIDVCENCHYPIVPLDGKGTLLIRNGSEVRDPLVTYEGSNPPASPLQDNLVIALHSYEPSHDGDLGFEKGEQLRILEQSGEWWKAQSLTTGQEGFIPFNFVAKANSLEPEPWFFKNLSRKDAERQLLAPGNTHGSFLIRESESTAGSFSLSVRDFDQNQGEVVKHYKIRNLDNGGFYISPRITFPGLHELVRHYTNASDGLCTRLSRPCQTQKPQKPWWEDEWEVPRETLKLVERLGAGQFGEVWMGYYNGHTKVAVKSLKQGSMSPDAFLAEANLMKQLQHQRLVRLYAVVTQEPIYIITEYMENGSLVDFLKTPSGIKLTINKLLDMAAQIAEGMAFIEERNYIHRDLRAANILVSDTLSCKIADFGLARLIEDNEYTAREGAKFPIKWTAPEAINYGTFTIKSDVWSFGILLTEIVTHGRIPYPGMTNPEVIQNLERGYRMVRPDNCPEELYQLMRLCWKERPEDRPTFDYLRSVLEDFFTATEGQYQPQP

T1 sequence (Q06187 whole entry): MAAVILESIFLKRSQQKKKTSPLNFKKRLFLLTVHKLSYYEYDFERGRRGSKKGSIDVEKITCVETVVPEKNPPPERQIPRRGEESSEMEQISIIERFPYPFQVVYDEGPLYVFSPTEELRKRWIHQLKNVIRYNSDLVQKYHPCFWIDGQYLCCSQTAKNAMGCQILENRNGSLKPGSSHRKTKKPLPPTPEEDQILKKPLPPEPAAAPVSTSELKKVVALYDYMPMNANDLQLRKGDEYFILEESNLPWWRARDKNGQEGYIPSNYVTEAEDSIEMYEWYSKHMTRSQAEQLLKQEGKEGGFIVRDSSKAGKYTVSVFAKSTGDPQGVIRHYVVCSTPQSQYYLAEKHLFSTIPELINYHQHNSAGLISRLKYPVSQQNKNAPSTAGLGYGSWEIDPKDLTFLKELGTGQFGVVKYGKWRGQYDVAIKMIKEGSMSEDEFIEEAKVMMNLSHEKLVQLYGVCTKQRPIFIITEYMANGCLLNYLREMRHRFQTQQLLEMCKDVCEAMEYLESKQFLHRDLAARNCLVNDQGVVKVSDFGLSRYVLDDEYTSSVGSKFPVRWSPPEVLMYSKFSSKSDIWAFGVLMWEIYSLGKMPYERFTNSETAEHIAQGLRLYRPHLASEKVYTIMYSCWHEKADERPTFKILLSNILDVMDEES

For `Cc1cc(Nc2nc(N3CCC(CNC(=O)c4ccc(N(C)C)cc4)CC3)cnc2C(N)=O)sn1` [Example A-77, 5-[4-({[4-(dimethylamino)phenyl]formamido}methyl)piperidin-1-yl]-3-[(3-methyl-1,2-thiazol-5-yl)amino]pyrazine-2-carboxamide], the half-inhibitory concentration (IC50) was at most 100 nM on BTK-WT (Table 10, Formula A-I); below 100 nM on JAK3 (Table 10, Formula A-I); 100 to 1000 nM on LCK (Table 10, Formula A-I).

As for `NC(=O)c1ncc(N2CCC[C@@H](NC(=O)Nc3cccnc3)C2)nc1Nc1ccc(C2CCN(C3CCCC3)CC2)cc1` [Example A-1, 3-{[4-(1-cyclopentylpiperidin-4-yl)phenyl]amino)-5-[(3R)-3-([(pyridin-3-yl)carbamoyl]amino}piperidin-1-yl]pyrazine-2-carboxamide], the IC50 was at most 100 nM on BTK-WT (Table 10, Formula A-I) and below 100 nM at LCK (Table 10, Formula A-I).

With `Cc1cc(Nc2nc(N3CCC[C@H](NC(=O)c4ccc(N(C)C)cc4)[C@@H]3C)cnc2C(N)=O)sn1` [Example A-54, 5-[(2S,3S)-3-[4-(dimethylamino)benzamido]-2-methylpiperidin-1-yl]-3-[(3-methyl-1,2-thiazol-5-yl)amino]pyrazine-2-carboxamide], the 50% inhibitory concentration (IC50) at BTK-WT (Table 10, Formula A-I) is at most 100 nM; at JAK3 (Table 10, Formula A-I), 1000 to 10000 nM; at LCK (Table 10, Formula A-I) it was 100 to 1000 nM.

On to `COc1cccc(NC(=O)N[C@@H]2CCCN(c3cnc(C(N)=O)c(Nc4cc(C)ns4)n3)C2)c1` [Example A-16, 5-[(3R)-3-{[(3-methoxyphenyl)carbamoyl]amino}piperidin-1-yl]-3-[(3-methyl-1,2-thiazol-5-yl)amino]pyrazine-2-carboxamide], for which the IC50 on BTK-WT (Table 10, Formula A-I) was at most 100 nM; at LCK (Table 10, Formula A-I) it was 100 to 1000 nM.

On to `C=CC(=O)N[C@@H]1CCCN(c2cnc(C(N)=O)c(Nc3ccc(C4CCN(C5CCCC5)CC4)cc3)n2)[C@@H]1C` [Example A-85, 5-((2R,3R)-3-acrylamido-2-methylpiperidin-1-yl)-3-(4-(1-cyclopentylpiperidin-4-yl)phenylamino)pyrazine-2-carboxamide], for which the IC50 at BTK-WT (Table 10, Formula A-I) was at most 100 nM; on JAK3 (Table 10, Formula A-I), below 100 nM; at LCK (Table 10, Formula A-I) it was below 100 nM.

Turning to `Cc1cc(Nc2nc(N[C@H]3CCCN(C(=O)c4ccccc4)C3)cnc2C(N)=O)sn1` [Example C-6, 5-{[(3S)-1-benzoylpiperidin-3-yl]amino}-3-[(3-methyl-1,2-thiazol-5-yl)amino]pyrazine-2-carboxamide], the IC50 at BTK-WT (Table 12, Formula C-I) is 1000 to 10000 nM; on JAK3 (Table 12, Formula C-I), above 10000 nM; at LCK (Table 12, Formula C-I), above 10000 nM.

On to `Cc1cc(Nc2nc(N3CCC[C@@H](NC(=O)c4ccc(N(C)C)cc4)C3)cnc2C(N)=O)sn1` [Example A-21, 5-[(3R)-3-[4-(dimethylamino)benzamido]piperidin-1-yl]-3-[(3-methyl-1,2-thiazol-5-yl)amino]pyrazine-2-carboxamide], for which the IC50 at BTK-WT (Table 10, Formula A-I) is at most 100 nM; at JAK3 (Table 10, Formula A-I), 100 to 1000 nM; on LCK (Table 10, Formula A-I), above 10000 nM.

Regarding `Cc1cc(Nc2nc(N3CCC(CNC(=O)c4ccccc4)CC3)cnc2C(N)=O)sn1` [Example A-76, 3-[(3-methyl-1,2-thiazol-5-yl)amino]-5-{4-[(phenylformamido)methyl]piperidin-1-yl}pyrazine-2-carboxamide], the half-maximal inhibitory concentration (IC50) on BTK-WT (Table 10, Formula A-I) was at most 100 nM; on JAK3 (Table 10, Formula A-I), below 100 nM; at LCK (Table 10, Formula A-I), 100 to 1000 nM.

Consider `C[C@H]1[C@@H](NC(=O)N(C)C)CCCN1c1cnc(C(N)=O)c(Nc2ccc3ncccc3c2)n1` [Example A-60, 5-[(2S,3S)-3-[(dimethylcarbamoyl)amino]-2-methylpiperidin-1-yl]-3-[(quinolin-6-yl)amino]pyrazine-2-carboxamide], for which the IC50 was 100 to 1000 nM on BTK-WT (Table 10, Formula A-I); 1000 to 10000 nM at JAK3 (Table 10, Formula A-I); above 10000 nM on LCK (Table 10, Formula A-I).

As to `Cc1cc(Nc2nc(N3CCC[C@@H](NC(=O)Nc4ccc(F)cc4)C3)cnc2C(N)=O)sn1` [Example A-14], the half-maximal inhibitory concentration (IC50) at BTK-WT (Table 10, Formula A-I) was at most 100 nM; on LCK (Table 10, Formula A-I), 100 to 1000 nM.

Take `NC(=O)c1ncc(N2CCC[C@@H](NC(=O)NC3CCCCC3)C2)nc1Nc1ccc(C2CCN(C3CCCC3)CC2)cc1` [Example A-3, 5-[(3R)-3-[(cyclohexylcarbamoyl)amino]piperidin-1-yl]-3-{[4-(1-cyclopentylpiperidin-4-yl)phenyl]amino}pyrazine-2-carboxamide]: the IC50 at BTK-WT (Table 10, Formula A-I) was at most 100 nM; on LCK (Table 10, Formula A-I), 100 to 1000 nM.

`COc1ccc(NC(=O)N[C@@H]2CCCN(c3cnc(C(N)=O)c(Nc4cc(C)ns4)n3)C2)cc1` [Example A-15, 5-[(3R)-3-{[(4-methoxyphenyl)carbamoyl]amino}piperidin-1-yl]-3-[(3-methyl-1,2-thiazol-5-yl)amino]pyrazine-2-carboxamide]: the IC50 at BTK-WT (Table 10, Formula A-I) is at most 100 nM; on LCK (Table 10, Formula A-I), 100 to 1000 nM.

For `Cc1cc(Nc2nc(N3CCC[C@@H](NC(=O)Nc4ccccc4)C3)cnc2C(N)=O)sn1` [Example A-9], the IC50 is at most 100 nM on BTK-WT (Table 10, Formula A-I) and below 100 nM on LCK (Table 10, Formula A-I).

`CC(C)c1ccc(Nc2nc(N3CCC(C(N)=O)CC3)nnc2C(N)=O)cc1` [Example A-91, 3-(4-carbamoylpiperidin-1-yl)-5-(4-isopropylphenylamino)-1,2,4-triazine-6-carboxamide]: the IC50 at BTK-WT (Table 10, Formula A-I) is 100 to 1000 nM; on LCK (Table 10, Formula A-I) it was above 10000 nM.

On to `CS(=O)(=O)c1ccc(Nc2nc(N3CCC[C@@H](NC(=O)Nc4cccnc4)C3)cnc2C(N)=O)cc1` [Example A-43, 3-[(4-methanesulfonylphenyl)amino]-5-[(3R)-3-{[(pyridin-3-yl)carbamoyl]amino}piperidin-1-yl]pyrazine-2-carboxamide], for which the half-inhibitory concentration (IC50) is at most 100 nM at BTK-WT (Table 10, Formula A-I) and 100 to 1000 nM on LCK (Table 10, Formula A-I).

In the case of `Cc1cc(Nc2nc(NC3CCC(NC(=O)N(C)C)CC3)cnc2C(N)=O)sn1` (stereo not shown) [Example B-3, 5-({4-[(dimethylcarbamoyl)amino]cyclohexyl}amino)-3-[(3-methyl-1,2-thiazol-5-yl)amino]pyrazine-2-carboxamide], the 50% inhibitory concentration (IC50) on BTK-WT (Table 11, Formula B-I) is at most 100 nM; on JAK3 (Table 11, Formula B-I) it was below 100 nM.

On to `CS(=O)(=O)c1ccc(Nc2nc(N3CCC[C@@H](NC(=O)Nc4ccccc4)C3)cnc2C(N)=O)cc1` [Example A-42, 3-[(4-methanesulfonylphenyl)amino]-5-[(3R)-3-[(phenylcarbamoyl)amino]piperidin-1-yl]pyrazine-2-carboxamide], for which the IC50 on BTK-WT (Table 10, Formula A-I) was at most 100 nM; on LCK (Table 10, Formula A-I), 100 to 1000 nM.

For `C[C@@H]1[C@H](NC(=O)c2ccc(C3CC3)cc2F)CCCN1c1cnc(C(N)=O)c(Nc2ccc(N3CCN(C)CC3)cc2)n1` [Example A-81, 5-[(2R,3R)-3-(4-cyclopropyl-2-fluorobenzamido)-2-methylpiperidin-1-yl]-3-{[4-(4-methylpiperazin-1-yl)phenyl]amino}pyrazine-2-carboxamide], the IC50 on BTK-WT (Table 10, Formula A-I) is at most 100 nM; at JAK3 (Table 10, Formula A-I), 1000 to 10000 nM.

With `Cc1cc(Nc2nc(N(C)[C@H]3CCCN(C(=O)c4ccc(N(C)C)cc4)C3)cnc2C(N)=O)sn1` [Example C-9, 5-{[(3S)-1-[4-(dimethylamino)benzoyl]piperidin-3-yl](methyl)amino}-3-[(3-methyl-1,2-thiazol-5-yl)amino]pyrazine-2-carboxamide], the IC50 at BTK-WT (Table 12, Formula C-I) was 1000 to 10000 nM; on JAK3 (Table 12, Formula C-I), above 10000 nM.

Regarding `Cc1cc(Nc2nc(N3CCCC(CNC(=O)N(C)C)C3)cnc2C(N)=O)sn1` (stereo not shown) [Example A-78, 5-(3-{[(dimethylcarbamoyl)amino]methyl}piperidin-1-yl)-3-[(3-methyl-1,2-thiazol-5-yl)amino]pyrazine-2-carboxamide], the IC50 at BTK-WT (Table 10, Formula A-I) is at most 100 nM; at JAK3 (Table 10, Formula A-I) it was 1000 to 10000 nM.

For the compound `Cc1cccc(C(=O)N[C@@H]2CCCN(c3cnc(C(N)=O)c(Nc4ccc(C5CCN(C6CCCC6)CC5)cc4)n3)C2)c1` [Example A-8, 3-{[4-(1-cyclopentylpiperidin-4-yl)phenyl]amino}-5-[(3R)-3-(3-methylbenzamido)piperidin-1-yl]pyrazine-2-carboxamide], the IC50 was at most 100 nM on BTK-WT (Table 10, Formula A-I) and 100 to 1000 nM at JAK3 (Table 10, Formula A-I).
